Results: the supplement of paper PMC10307832

Columns and labels:
Experiment in all cases: relative viability (nuclei count vs DMSO), 5 days (fraction); higher = more cells survive
Elesclomol = compound: CN(NC(=O)CC(=O)NN(C)C(=S)c1ccccc1)C(=S)c1ccccc1 [Elesclomol]
In short: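 Viability here means nuclei in treated wells divided by nuclei in vehicle wells, reported as the median across plates. Only plates with control CV below 25% and at least one doubling passed. Lung cancer cell lines in 1536-well plates were exposed to five √10-spaced library-drug doses for 5 days and counted from 4× Hoechst images in MetaXpress.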

Elesclomol + Crizotinib = compound: CN(NC(=O)CC(=O)NN(C)C(=S)c1ccccc1)C(=S)c1ccccc1 [Elesclomol] + C[C@@H](Oc1cc(-c2cnn(C3CCNCC3)c2)cnc1N)c1c(Cl)ccc(F)c1Cl [Crizotinib] (partner 1 µM)
In short: (§1)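 Relative viability was taken as the ratio of nuclei in treated wells to nuclei in vehicle wells. Lung cancer cell lines in 1536-well plates received compounds by pin tool one day after seeding, either one drug alone or a fixed anchor-drug dose plus five library-drug doses (not always all listed) in √10 steps. Nuclei were counted on 4× images after 5 days of treatment, and values are medians of duplicate plates.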

Elesclomol + Alpelisib = compound: CN(NC(=O)CC(=O)NN(C)C(=S)c1ccccc1)C(=S)c1ccccc1 [Elesclomol] + Cc1nc(NC(=O)N2CCC[C@H]2C(N)=O)sc1-c1ccnc(C(C)(C)C(F)(F)F)c1 [Alpelisib] (partner 2 µM)
In short: as §1

Elesclomol + Dasatinib = compound: CN(NC(=O)CC(=O)NN(C)C(=S)c1ccccc1)C(=S)c1ccccc1 [Elesclomol] + Cc1nc(Nc2ncc(C(=O)Nc3c(C)cccc3Cl)s2)cc(N2CCN(CCO)CC2)n1 [Dasatinib] (partner 0.075 µM)
In short: as §1

Elesclomol + Olaparib = compound: CN(NC(=O)CC(=O)NN(C)C(=S)c1ccccc1)C(=S)c1ccccc1 [Elesclomol] + O=C(c1cc(Cc2n[nH]c(=O)c3ccccc23)ccc1F)N1CCN(C(=O)C2CC2)CC1 [Olaparib] (partner 8 µM)
In short: as §1

| Cell Line | relative viability (Elesclomol; 0.003162 µM) | relative viability (Elesclomol; 0.01 µM) | relative viability (Elesclomol; 0.03162 µM) | relative viability (Elesclomol; 0.1 µM) | relative viability (Elesclomol + Crizotinib; first compound 0.003162 µM) | relative viability (Elesclomol + Crizotinib; first compound 0.01 µM) | relative viability (Elesclomol + Crizotinib; first compound 0.03162 µM) | relative viability (Elesclomol + Crizotinib; first compound 0.1 µM) | relative viability (Elesclomol + Alpelisib; first compound 0.003162 µM) | relative viability (Elesclomol + Alpelisib; first compound 0.01 µM) | relative viability (Elesclomol + Alpelisib; first compound 0.03162 µM) | relative viability (Elesclomol + Alpelisib; first compound 0.1 µM) | relative viability (Elesclomol + Dasatinib; first compound 0.003162 µM) | relative viability (Elesclomol + Dasatinib; first compound 0.01 µM) | relative viability (Elesclomol + Dasatinib; first compound 0.03162 µM) | relative viability (Elesclomol + Dasatinib; first compound 0.1 µM) | relative viability (Elesclomol + Olaparib; first compound 0.003162 µM) | relative viability (Elesclomol + Olaparib; first compound 0.01 µM) | relative viability (Elesclomol + Olaparib; first compound 0.03162 µM) | relative viability (Elesclomol + Olaparib; first compound 0.1 µM) |
| --- | --- | --- | --- | --- | --- | --- | --- | --- | --- | --- | --- | --- | --- | --- | --- | --- | --- | --- | --- | --- |
| 201T | 0.953 | 0.884 | 0.86 | 0.61 | 1.01 | 0.976 | 0.978 | 0.99 | 0.985 | 1.02 | 1.03 | 0.964 | 0.535 | 0.587 | 0.543 | 0.236 | 0.843 | 0.843 | 0.844 | 0.705 |
| A549 | 0.912 | 0.417 | 0.24 | 0.0637 | 0.445 | 0.239 | 0.0617 | 0.0458 | 0.731 | 0.229 | 0.0735 | 0.0217 |  |  |  |  | 0.289 | 0.22 | 0.189 | 0.0697 |
| A-427 | 0.963 | 0.554 | 0.529 | 0.18 | 0.959 | 0.744 | 0.895 | 0.277 | 1.04 | 1.07 | 1.15 | 0.558 | 0.661 | 0.582 | 0.358 | 0.127 | 0.52 | 0.424 | 0.232 | 0.164 |
| ABC-1 | 0.239 | 0.252 | 0.201 | 0.328 | 0.195 | 0.136 | 0.223 | 0.289 | 0.292 | 0.313 | 0.23 | 0.256 | 0.173 | 0.233 | 0.207 | 0.193 | 0.23 | 0.428 | 0.248 | 0.342 |
| BEN | 0.937 | 0.677 | 0.344 | 0.307 | 0.803 | 0.397 | 0.304 | 0.214 | 0.873 | 0.351 | 0.338 | 0.242 | 0.359 | 0.204 | 0.219 | 0.159 | 0.828 | 0.68 | 0.656 | 0.362 |
| CAL-12T | 0.939 | 0.442 | 0.269 | 0.0778 | 0.5 | 0.0867 | 0.0556 | 0.0701 | 1.19 | 0.239 | 0.312 | 0.0757 | 0.282 | 0.117 | 0.0442 | 0.0555 | 0.64 | 0.321 | 0.117 | 0.0718 |
| COR-L23 | 0.969 | 0.629 | 0.461 | 0.256 | 0.633 | 0.409 | 0.341 | 0.124 | 0.694 | 0.366 | 0.268 | 0.0856 | 0.439 | 0.254 | 0.141 | 0.068 | 0.314 | 0.254 | 0.143 | 0.0895 |
| COR-L 105 | 0.85 | 0.472 | 0.344 | 0.221 | 0.787 | 0.407 | 0.288 | 0.207 | 1.11 | 0.712 | 0.409 | 0.256 | 0.303 | 0.248 | 0.21 | 0.079 | 0.713 | 0.575 | 0.365 | 0.275 |
| ChaGo-K-1 | 0.947 | 0.952 | 0.663 | 0.199 | 0.596 | 0.376 | 0.288 | 0.258 |  |  |  |  | 0.609 | 0.458 | 0.214 | 0.116 | 0.423 | 0.396 | 0.232 | 0.125 |
| EKVX | 0.912 | 0.662 | 0.379 | 0.203 | 0.741 | 0.486 | 0.376 | 0.21 | 0.857 | 0.369 | 0.328 | 0.174 | 0.474 | 0.315 | 0.226 | 0.202 | 0.713 | 0.364 | 0.193 | 0.106 |
| EMC-BAC-2 | 1.05 | 0.548 | 0.602 | 0.557 | 0.762 | 0.718 | 0.698 | 0.406 | 0.743 | 0.649 | 0.616 | 0.389 | 0.361 | 0.28 | 0.286 | 0.138 | 0.445 | 0.345 | 0.381 | 0.288 |
| EPLC-272H | 0.876 | 0.514 | 0.534 | 0.128 | 1.03 |  | 0.837 | 0.135 | 1.07 |  | 0.861 | 0.249 | 0.397 |  | 0.405 | 0.059 | 0.592 | 0.157 | 0.132 | 0.178 |
| H3255 | 0.879 | 0.785 | 0.566 | 0.442 | 0.967 | 0.459 | 0.377 | 0.409 | 0.721 | 0.473 | 0.348 | 0.309 | 0.387 | 0.396 | 0.274 | 0.222 | 0.488 | 0.456 | 0.482 | 0.316 |
| HARA | 0.883 | 0.879 | 0.919 | 0.293 | 1.06 | 0.799 | 0.987 | 0.368 | 0.803 | 0.687 | 0.944 | 0.17 | 0.244 | 0.312 | 0.283 | 0.0991 | 0.774 | 0.524 | 0.417 | 0.36 |
| HCC-15 | 0.964 | 0.828 | 0.626 | 0.231 | 0.753 | 0.667 | 0.556 | 0.259 | 0.931 | 0.645 | 0.559 | 0.236 | 0.533 | 0.386 | 0.169 | 0.0668 | 0.646 | 0.631 | 0.536 | 0.217 |
| HCC-44 | 0.968 | 0.935 | 0.831 | 0.764 | 0.767 | 0.73 | 0.808 | 0.457 | 0.812 | 0.723 | 0.768 | 0.371 |  |  |  |  | 0.965 | 0.914 | 0.976 | 1 |
